Key:
Format in all cases: cell-based, human
[1] = system: SH-SY5Y cells; experiment: Cell viability assay (MTT method) after cisplatin treatment; conditions: SH-SY5Y cells treated with cisplatin, FIG. 14
Experimental: SH-SY5Y cells, which are a neuroblastoma cell line, are used as tumor cells. SH-SY5Y cells are treated with cisplatin, and then the cell viability is measured by the MTT method. FIG. 14 is a graph showing the relationship between the amount of cisplatin and the cell viability of SH-SY5Y cells. The cell viability was determined by a modified 3-(4,5-dimethylthiazol-2-yl)-2,5-diphenyltetrazolium bromide (MTT) assay. Specifically, […] cells were plated on 100 μl of complete medium in a 96-well micro titer plate (5×10^3 cells/well), and made to adhere thereto. On the next day, the medium was changed, and the cells were treated with cisplatin for 24 hours. In the MTT assay, 10 μl of MTT solution was added to each well, and incubated at 37° C. for 3 hours. The absorbance of the wells at 570 nm was measured using a microplate reader (Type 450, Bio-Rad Laboratories).

[2] = system: p53; experiment: Immunoblotting of cisplatin-treated SH-SY5Y cells with anti-p53 antibody; conditions: FIG. 15
Experimental: (§1) Next, products obtained by cisplatin treatment of SH-SY5Y cells are analyzed by immunoblotting and immunoprecipitation. Specifically, SH-SY5Y cells are treated with cisplatin, and then the expression levels of p53, p21, βAPP and actin are analyzed by immunoblotting. Moreover, an interaction between a βAPP-derived product and p53 is analyzed by immunoprecipitation and immunoblotting. FIG. 15 is diagrams showing the result of immunoblotting analysis of products obtained by cisplatin treatment of SH-SY5Y cells. In the figure, “IP” means immunoprecipitation, and “IB” means immunoblotting. The second diagram from the top in FIG. 15 is a diagram showing the result of immunoblotting analysis using anti-p53 antibody. […] The third diagram from the top in FIG. 15 is a diagram showing the result of immunoblotting analysis using anti-p21 antibody. […] The uppermost diagram in FIG. 15 is a diagram showing the result of immunoprecipitation of a cell lysate (homogenate) using anti-βAPP antibody, and immunoblotting analysis of the immunoprecipitate using anti-p53 antibody. […] Since βAPP is present on the membrane and p53 is present in the nucleus, it is unlikely that there is physical binding therebetween.

[3] = system: p21; experiment: Immunoblotting of cisplatin-treated SH-SY5Y cells with anti-p21 antibody; conditions: FIG. 15
Experimental: as §1

[4] = system: βAPP-derived product and p53; experiment: Immunoprecipitation with anti-βAPP antibody and immunoblotting with anti-p53 antibody of cisplatin-treated SH-SY5Y cells; conditions: SH-SY5Y cell lysate, IP anti-βAPP, IB anti-p53, FIG. 15
Experimental: as §1

N.N.[Cl][Pt][Cl] [cisplatin]
cell viability of SH-SY5Y cells [1]: the number of SH-SY5Y cells decreases depending on the dosage of cisplatin | induction of endogenous p53 [2]: the induction of endogenous p53 by cisplatin can be seen | expression of p21 [3]: p53 expressed during the cisplatin treatment promotes the expression of p21 | physical binding between a βAPP-derived product and p53 [4]: p53 is present in the cisplatin treatment group
